Data set [1] deals with T1, Methionine aminopeptidase 2 (Homo sapiens, UniProt P50579). As to the kind of experiment: Inhibition of MetAP2.
Data set [2] deals with T1, Methionine aminopeptidase 2. Description: Inhibition of MetAP2 in presence of 40 mg/ml human serum albumin.
Data set [3] in a line: Protein binding in rat plasma at 10 uM at pH 7.4. Type of data set: ADME, cell-free. The settings on record: read-out: PPB (converted).
For data set [4], the target named is Methionine aminopeptidase 1 (Homo sapiens, UniProt P53582). As to the kind of experiment: Inhibition of MetAP1.
Data set [5] addresses Methionine aminopeptidase (Pyrococcus furiosus (strain ATCC 43587 / DSM 3638 / JCM 8422 / Vc1), UniProt P56218). As to the kind of experiment: Inhibition of Pyrococcus furiosus MetAP.
A short description of data set [6]: Inhibition of AP. Further details: species or system Homo sapiens.
Another data set addresses Xaa-Pro aminopeptidase 1 (Homo sapiens, UniProt Q9NQW7). As to the kind of experiment: Inhibition of AP1.
The target of another data set is Aminopeptidase N (Homo sapiens, UniProt P15144). Description: Inhibition of AP-M.
For the next data set, the system named is HMEC. As to the kind of experiment: cells. To be noted: Homo sapiens.

The structures appear in SMILES notation.

T1 sequence (P50579 whole entry): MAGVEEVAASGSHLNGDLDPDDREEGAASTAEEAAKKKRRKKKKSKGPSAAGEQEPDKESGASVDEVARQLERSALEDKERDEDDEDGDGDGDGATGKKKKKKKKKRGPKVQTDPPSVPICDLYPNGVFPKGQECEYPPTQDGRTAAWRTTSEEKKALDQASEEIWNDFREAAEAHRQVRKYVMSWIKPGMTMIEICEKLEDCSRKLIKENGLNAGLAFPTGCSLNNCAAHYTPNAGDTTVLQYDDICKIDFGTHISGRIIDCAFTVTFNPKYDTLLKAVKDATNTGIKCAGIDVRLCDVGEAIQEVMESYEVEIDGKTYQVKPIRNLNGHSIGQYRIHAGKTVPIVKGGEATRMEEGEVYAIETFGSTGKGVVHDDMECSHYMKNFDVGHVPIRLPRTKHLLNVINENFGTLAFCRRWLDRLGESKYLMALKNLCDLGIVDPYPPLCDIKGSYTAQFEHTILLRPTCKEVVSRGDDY
Chain of Xaa-Pro aminopeptidase 1 (Q9NQW7 whole entry): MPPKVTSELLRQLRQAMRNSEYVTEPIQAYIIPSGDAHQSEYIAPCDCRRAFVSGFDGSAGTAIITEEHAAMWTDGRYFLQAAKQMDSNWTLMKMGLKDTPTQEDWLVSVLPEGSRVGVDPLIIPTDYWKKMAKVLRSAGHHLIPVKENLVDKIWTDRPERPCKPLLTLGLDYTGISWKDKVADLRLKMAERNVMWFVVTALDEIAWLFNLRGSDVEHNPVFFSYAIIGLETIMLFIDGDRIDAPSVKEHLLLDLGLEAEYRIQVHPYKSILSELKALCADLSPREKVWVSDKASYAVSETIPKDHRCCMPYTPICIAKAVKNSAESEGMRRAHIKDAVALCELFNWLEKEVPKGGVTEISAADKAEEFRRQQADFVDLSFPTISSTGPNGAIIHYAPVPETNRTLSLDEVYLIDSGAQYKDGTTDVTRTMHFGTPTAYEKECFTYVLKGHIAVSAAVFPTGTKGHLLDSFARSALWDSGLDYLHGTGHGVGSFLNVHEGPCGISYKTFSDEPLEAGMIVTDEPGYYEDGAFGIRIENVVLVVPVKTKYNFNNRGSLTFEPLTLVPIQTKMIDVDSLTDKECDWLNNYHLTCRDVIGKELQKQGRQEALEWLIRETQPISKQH
Chain of Aminopeptidase N (P15144 whole entry): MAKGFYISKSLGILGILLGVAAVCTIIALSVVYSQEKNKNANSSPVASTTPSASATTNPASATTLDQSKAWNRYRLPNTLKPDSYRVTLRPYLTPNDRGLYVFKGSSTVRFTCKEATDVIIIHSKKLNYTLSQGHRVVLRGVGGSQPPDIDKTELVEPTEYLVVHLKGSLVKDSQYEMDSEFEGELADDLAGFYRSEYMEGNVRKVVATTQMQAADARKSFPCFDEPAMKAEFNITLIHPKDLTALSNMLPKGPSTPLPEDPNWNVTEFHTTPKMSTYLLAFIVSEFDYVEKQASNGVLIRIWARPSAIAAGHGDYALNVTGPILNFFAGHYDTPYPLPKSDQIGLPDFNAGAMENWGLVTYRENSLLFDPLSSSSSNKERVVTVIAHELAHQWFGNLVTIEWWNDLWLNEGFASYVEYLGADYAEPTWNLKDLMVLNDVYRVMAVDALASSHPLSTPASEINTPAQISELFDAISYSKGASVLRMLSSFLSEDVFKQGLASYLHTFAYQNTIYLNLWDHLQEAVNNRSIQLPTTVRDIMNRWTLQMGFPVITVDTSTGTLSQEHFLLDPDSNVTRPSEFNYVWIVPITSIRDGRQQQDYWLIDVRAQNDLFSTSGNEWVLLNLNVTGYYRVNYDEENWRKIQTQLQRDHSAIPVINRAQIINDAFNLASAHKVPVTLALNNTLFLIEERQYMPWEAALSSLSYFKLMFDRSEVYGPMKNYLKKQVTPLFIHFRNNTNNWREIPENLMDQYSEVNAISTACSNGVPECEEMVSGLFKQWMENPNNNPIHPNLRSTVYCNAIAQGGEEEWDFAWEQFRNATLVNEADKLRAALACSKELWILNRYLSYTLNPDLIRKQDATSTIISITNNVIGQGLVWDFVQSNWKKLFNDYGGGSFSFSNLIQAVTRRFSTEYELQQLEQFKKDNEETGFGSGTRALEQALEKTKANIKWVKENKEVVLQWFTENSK
Chain of Methionine aminopeptidase (P56218 whole entry): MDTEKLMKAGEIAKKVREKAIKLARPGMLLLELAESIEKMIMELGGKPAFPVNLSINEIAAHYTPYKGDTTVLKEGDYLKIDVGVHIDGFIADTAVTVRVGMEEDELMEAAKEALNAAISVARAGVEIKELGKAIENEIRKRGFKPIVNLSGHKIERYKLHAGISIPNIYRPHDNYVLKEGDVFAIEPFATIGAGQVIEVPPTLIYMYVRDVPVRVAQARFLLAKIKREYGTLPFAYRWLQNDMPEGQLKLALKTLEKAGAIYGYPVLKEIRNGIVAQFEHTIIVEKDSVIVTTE
Description for HMEC: Antiproliferative activity against HMVEC

Consider `O=C(O)c1c(NS(=O)(=O)c2ccccc2)ccc2ccccc12`, for which the half-maximal inhibitory concentration (IC50) in data set [1] is 19 nM; in [2], 3.8 µM; in [4], 47 µM; in data set [5] it was above 100 µM; in [6], above 100 µM; at Xaa-Pro aminopeptidase 1, above 100 µM. Also, the IC50 is above 100 µM at Aminopeptidase N and 500 nM in the data set on HMEC. In addition, in [3], the fraction unbound at 10 µM was 0.002.
For `O=C(O)c1cc(Br)ccc1NS(=O)(=O)c1ccc(Cl)cc1`, in the data set with HMEC, inhibition was half-maximal at 3000 nM (IC50).
Compound `Cc1cc(C)c(NS(=O)(=O)c2ccccc2)c(C(=O)O)c1` gave an IC50 with HMEC of 400 nM.
The same measure, in the same setting: the figure for `O=C(O)c1c(NS(=O)(=O)c2ccc(F)cc2)ccc2c1CCCC2` is 180 nM; for `CCCc1ccc(NS(=O)(=O)c2ccccc2)c(C(=O)O)c1` it is 60000 nM.
Consider `O=C(O)c1cc(Br)ccc1NS(=O)(=O)c1cccc2nsnc12`, for which the half-maximal inhibitory concentration (IC50) is 3900 nM in data set [1], above 100 µM in [2] and 2000 nM in the data set on HMEC.
On to `Cc1ccc(NS(=O)(=O)c2ccccc2)c(C(=O)O)c1`, for which the fraction unbound at 10 µM in [3] is 0.003. Further, the IC50 in the data set on HMEC worked out at 100 nM.
`C[C@H]1CCCc2ccc(NS(=O)(=O)c3ccc(F)cc3)c(C(=O)O)c21` displayed a half-maximal inhibitory concentration (IC50) in the data set with HMEC of 130 nM.
Consider `Cc1ccc(NS(=O)(=O)c2ccc(Cl)cc2)c(C(=O)O)c1`, for which the fraction unbound at 10 µM in data set [3] was 0.019. The compound also registered a concentration for half-maximal inhibition (IC50) in the data set with HMEC of 300 nM.
With `CC1=CCCc2ccc(NS(=O)(=O)c3ccc(F)cc3)c(C(=O)O)c21`, the IC50 with HMEC came out at 150 nM.
With `O=C(O)c1c(NS(=O)(=O)c2ccc(F)cc2)ccc2ccccc12`, in data set [3], the fraction unbound at 10 µM is 0.008. In the data set with HMEC, this compound came in with an IC50 of 500 nM.
For `CCc1ccc(NS(=O)(=O)c2ccccc2)c(C(=O)O)c1`, in that order: 0.002 and 10000 nM.
`CCCCc1ccc(NS(=O)(=O)c2ccccc2)c(C(=O)O)c1` came in with an IC50 in the data set with HMEC of 100000 nM.

As a reminder, the IC50 is the midpoint of a concentration-inhibition curve.

For the origin of these results see ChEMBL document CHEMBL1138906, “Development of sulfonamide compounds as potent methionine aminopeptidase type II inhibitors with antiproliferative properties” (Bioorg Med Chem Lett, 2006).
